Data published in patent publication US5385842A, “Anthraquinones as inhibitors of sulfide production from sulfate-reducing bacteria” (E. I. Du Pont de Nemours and Company, priority 1993, dated 1995).
Where a name gives a salt, the structure may show the parent alone.

Test system: Desulfovibrio desulfuricans G100A
Test: microbe, parasite or virus in culture
Assay type: cell-based
Details: Desulfovibrio desulfuricans, G100A, read-out: % Inhib. (inhibition of sulfide production)

Nc1cc(S(=O)(=O)O)c(O)c2c1C(=O)c1c(O)c(S(=O)(=O)O)cc(N)c1C2=O [Acid blue 45, 4,8-Diamino-9,10-dihydro-1,5-dihydroxy-9,10-dioxo-2,6-anthracenedisulfonic acid, di Na salt]
inhibition at 10 ppm: 0%

Cc1cc(C)c(S(=O)(=O)O)c(C)c1Nc1ccc(Nc2c(C)cc(C)c(S(=O)(=O)O)c2C)c2c1C(=O)c1ccccc1C2=O [Acid blue 80, 3,3'-[(9,10-Dihydro-9,10-dioxo-1,4-anthracenediyl)adiimino]bis[2,4,6-trimethylbenzenesulfonicacid], di Na salt]
inhibition at 10 ppm: 0%

C=CS(=O)(=O)c1cccc(Nc2cc(S(=O)(=O)O)c(N)c3c2C(=O)c2ccccc2C3=O)c1 [Acid blue 215, 1-Amino-4-[[3-(ethenylsulfonyl)phenyl]-9,10-dihydro-9,10-dioxo]-2-anthracene sulfonic acid, monosodium salt]
inhibition at 10 ppm: 19.7%

Cc1ccc(Nc2ccc(Nc3ccc(C)cc3S(=O)(=O)O)c3c2C(=O)c2ccccc2C3=O)c(S(=O)(=O)O)c1 [Acid green 25, 2,2'-[(9,10-Dihydro-9,10-dioxo-1,4-anthracenediyl)-diimino]bis[5-methylbenzenesulfonic acid],di Na salt]
inhibition at 10 ppm: 38.8%

CCCCc1ccc(Nc2ccc(Nc3ccc(CCCC)cc3S(=O)(=O)O)c3c2C(=O)c2ccccc2C3=O)c(S(=O)(=O)O)c1 [Acid green 27, 2,2'-[(9,10-Dihydro-9,10-dioxo-1,4-anthracenediyl)-diimino]bis[5-butylbenzenesulfonic acid]]
inhibition at 10 ppm: 16.5%

Cc1ccc(Nc2ccc(Nc3ccc(C)cc3S(=O)(=O)O)c3c2C(=O)c2c(O)ccc(O)c2C3=O)c(S(=O)(=O)O)c1 [Acid green 41, 2,2'-[(9,10-Dihydro-5,8-dihydroxy-9,10-dioxo-1,4-anthracendiyl)diimino]bis[5-methylbenzenesulfonic acid], di Na salt]
inhibition at 10 ppm: 17.8%

O=C(O)c1ccccc1Nc1cccc2c1C(=O)c1cccc(Nc3ccccc3C(=O)O)c1C2=O [Acridylic acid, 1,5-Bis(2-carboxyanilino)-9,10-anthracenedione]
inhibition at 10 ppm: 33.5%

COc1cccc2c1C(=O)c1c(O)c3c(c(O)c1C2=O)C[C@@](O)(C(=O)CO)C[C@@H]3O[C@H]1C[C@H](N)[C@H](O)[C@H](C)O1 [Adriamycin hydrochloride, 10-[(3-Amino-2,3,6-trideoxy-alpha-L-lyxo-hexopyranosyl)oxy]-7,8,9,10-tetrahydro-6,8,11-trihydroxy-8-(hydroxyacetyl)-1-methoxy-5,12-naphthacenedione hydrochloride, reference compound]
inhibition at 30 ppm: 55.7%

O=C1c2ccccc2C(=O)c2c(Nc3ccc(S(=O)(=O)O)cc3)c(Nc3ccc(S(=O)(=O)O)cc3)cc(O)c21 [Alizarin blue black B, 1,2-Bis[(4-sulfophenyl)amino]-4-hydroxy-anthraquinone]
inhibition at 10 ppm: 17.5%

O=C(O)CN(CC(=O)O)Cc1cc2c(c(O)c1O)C(=O)c1ccccc1C2=O [Alizarin complexone dehydrate, (3,4-dihydroxy-2-anthraquinonyl)-methyliminodiacetic acid]
inhibition at 30 ppm: 14.3%

O=C1c2c(O)ccc(O)c2C(=O)c2c(O)c(O)c(O)c(O)c21 [Alizarin cyanin, 1,2,3,4,5,8-Hexahydroxyanthraquinone]
inhibition at 10 ppm: 40.6%

O=C1c2ccccc2C(=O)c2c1cc(S(=O)(=O)O)c(O)c2O [Alizarin red S monohydrate, 3,4-Dihydroxy-9,10-dioxo-2-anthracenesulfonic acid]
inhibition at 10 ppm: 0%

O=C1c2ccc(O)cc2C(=O)c2c1cc(S(=O)(=O)O)c(O)c2O [Alizarin rubinol, 9,10-Dihydro-3,4,6-trihydroxy-9,10-dioxo-2-anthracenesulfonic acid]
inhibition at 30 ppm: 0%

Cc1ccc(Nc2cccc3c2C(=O)c2cccc(Nc4ccc(C)cc4S(=O)(=O)O)c2C3=O)c(S(=O)(=O)O)c1 [Alizarin violet 3R, 2,2'-[(9,10-Dihydro-9,10-dioxo-1,5-anthracenediyl)-diimino]bis[5-methylbenzenesulfonic acid], di Na salt]
inhibition at 10 ppm: 30.9%

O=C1c2ccc(O)c(O)c2C(=O)c2cccc(S(=O)(=O)O)c21 [Alizarin-5-sulfonic acid, 9,10-Dihydro-5,6-dihydroxy-9,10-dioxo-1-anthracenesulfonic acid]
inhibition at 30 ppm: 7.1%

CNc1ccc(Nc2ccc(C)cc2S(=O)(=O)O)c2c1C(=O)c1ccccc1C2=O [Alizarine astrol B-CF, 2-[[9,10-Dihydro-4-(methylamino)-9,10-dioxo-1-anthracenyl]amino]-5-methyl-benzenesulfonic acid, monosodium salt]
inhibition at 10 ppm: 2.6%

O=C1c2cccc(O)c2C(=O)c2c(O)cc(CO)cc21 [Aloe-emodin, 1,8-Dihydroxy-3-(hydroxymethyl)-anthraquinone]
inhibition at 10 ppm: 43.8%

O=C1c2ccccc2C(=O)c2c1cc(O)c(O)c2O [Anthragallol, 1,2,3-trihydroxyanthraquinone]
inhibition at 30 ppm: 2.6%

O=C1c2ccc(O)cc2C(=O)c2c1ccc(O)c2O [Anthrapurpurin, 1,2,7-Trihydroxyanthraquinone]
inhibition at 10 ppm: 37.5%

O=C1c2cccc(S(=O)(=O)O)c2C(=O)c2cccc(S(=O)(=O)O)c21 [Anthraquinone-1,5-disulfonic acid di Na salt hydrate]
inhibition at 10 ppm: 17.5%

O=C1c2ccc(S(=O)(=O)O)cc2C(=O)c2ccc(S(=O)(=O)O)cc21 [Anthraquinone-2,6-disulfonic acid di Na salt]
inhibition at 10 ppm: 9.8%

O=C(O)c1ccc2c(c1)C(=O)c1ccccc1C2=O [Anthraquinone-2-carboxylic acid]
inhibition at 10 µg/mL: 22.6%

O=C1c2ccccc2C(=O)c2cc(S(=O)(=O)O)ccc21 [Anthraquinone-2-sulfonic acid sodium salt monohydrate]
inhibition at 10 ppm: 17%

O=C1c2ccccc2C(=O)c2ccccc21 [Anthraquinone]
inhibition at 10 ppm: 37.5%

Oc1ccc2c(O)c3ccccc3cc2c1O [Anthrarobin, 1,2,10-Anthracenetriol]
inhibition at 10 ppm: 44.4%

CN(C)Cc1ccc(Nc2ccc(N)c3c2C(=O)c2ccccc2C3=O)cc1 [Basic Blue 47, 1-Amino-4-[4-[(dimethylamino)methyl]phenyl]amino-9,10-anthracenedione]
inhibition at 10 ppm: 37.2%

O=C1c2ccccc2C(=O)c2c1ccc1ccccc21 [Benz[a]anthracene-7,12-dione]
inhibition at 30 ppm: 52.9%

Cc1c(C(=O)O)c(O)cc2c1C(=O)c1c(O)c([C@@H]3O[C@H](CO)[C@@H](O)[C@H](O)[C@H]3O)c(O)c(O)c1C2=O [Carminic acid, 7-β-D-Glucopyranosyl-9,10-dihydro-3,5,6,8-tetra-hydroxy-1-methyl-9,10-dioxo-2-anthracene-carboxylic acid]
inhibition at 10 µg/mL: 0%

Cc1cc(O)c2c(c1O)C(=O)c1cc(O)cc(O)c1C2=O [Catenarin, 1,4,5,7-Tetrahydroxy-2-methyl-9,10-anthracenedione]
inhibition at 10 ppm: 37.5%

Cc1cc(O)c2c(c1)C(=O)c1cccc(O)c1C2=O [Chrysophanic acid, 1,8-Dihydroxy-3-methylanthraquinone]
inhibition at 30 ppm: 27.9%

Cc1cc(O)c2c(c1O)C(=O)c1c(O)ccc(O)c1C2=O [Cynodontin, 1,4,5,8-Tetrahydroxy-2-methyl-9,10-anthracenedione]
inhibition at 10 ppm: 34.4%
